How the values were obtained:
NCI-H460 = test: Antiproliferative activity against human H460 cells after 48 hrs by propidium iodide staining-based fluorometric analysis; assay type: functional, cell-based; details: NCI-H460, 48 h
SNB-75 = test: Growth inhibition of human SNB75 cells at 10 uM incubated for 48 hrs by sulforhodamine B assay relative to control; assay type: functional; details: SNB-75, 48 h, read-out: GI
Hs-578T = test: Growth inhibition of human Hs 578T cells at 10 uM incubated for 48 hrs by sulforhodamine B assay relative to control; assay type: functional; details: read-out: GI
HOP-62 = test: Growth inhibition of human HOP62 cells at 10 uM incubated for 48 hrs by sulforhodamine B assay relative to control; assay type: functional; details: HOP-62, 48 h, read-out: GI
MCF7 = test: Growth inhibition of human MCF7 cells at 10 uM incubated for 48 hrs by sulforhodamine B assay relative to control; assay type: functional; details: MCF7, 48 h, read-out: GI
UO-31 = test: Growth inhibition of human UO31 cells at 10 uM incubated for 48 hrs by sulforhodamine B assay relative to control; assay type: functional; details: UO-31, 48 h, read-out: GI
HL-60(TB) = test: Growth inhibition of human HL-60(TB) cells at 10 uM incubated for 48 hrs by sulforhodamine B assay relative to control; assay type: functional; details: HL-60, 48 h, read-out: GI
T47D = test: Growth inhibition of human T47D cells at 10 uM incubated for 48 hrs by sulforhodamine B assay relative to control; assay type: functional; details: read-out: GI
UACC-62 = test: Growth inhibition of human UACC62 cells at 10 uM incubated for 48 hrs by sulforhodamine B assay relative to control; assay type: functional; details: UACC-62, 48 h, read-out: GI
SK-MEL-2 = test: Growth inhibition of human SK-MEL-2 cells at 10 uM incubated for 48 hrs by sulforhodamine B assay relative to control; assay type: functional; details: SK-MEL-2, 48 h, read-out: GI
TK-10 = test: Growth inhibition of human TK10 cells at 10 uM incubated for 48 hrs by sulforhodamine B assay relative to control; assay type: functional; details: TK-10, 48 h, read-out: GI
SK-MEL-5 = test: Growth inhibition of human SK-MEL-5 cells at 10 uM incubated for 48 hrs by sulforhodamine B assay relative to control; assay type: functional; details: SK-MEL-5, 48 h, read-out: GI
NCI-H322M = test: Growth inhibition of human NCI-H322M cells at 10 uM incubated for 48 hrs by sulforhodamine B assay relative to control; assay type: functional; details: read-out: GI
CCRF-CEM = test: Growth inhibition of human CCRF-CEM cells at 10 uM incubated for 48 hrs by sulforhodamine B assay relative to control; assay type: functional; details: read-out: GI
NCI-H522 = test: Growth inhibition of human NCI-H522 cells at 10 uM incubated for 48 hrs by sulforhodamine B assay relative to control; assay type: functional; details: NCI-H522, 48 h, read-out: GI
SF-539 = test: Growth inhibition of human SF539 cells at 10 uM incubated for 48 hrs by sulforhodamine B assay relative to control; assay type: functional; details: SF-539, 48 h, read-out: GI
SN12C = test: Growth inhibition of human SN12C cells at 10 uM incubated for 48 hrs by sulforhodamine B assay relative to control; assay type: functional; details: read-out: GI
SK-MEL-28 = test: Growth inhibition of human SK-MEL-28 cells at 10 uM incubated for 48 hrs by sulforhodamine B assay relative to control; assay type: functional; details: SK-MEL-28, 48 h, read-out: GI
SR = test: Growth inhibition of human SR cells at 10 uM incubated for 48 hrs by sulforhodamine B assay relative to control; assay type: functional; details: read-out: GI
NCI-H226 = test: Growth inhibition of human NCI-H226 cells at 10 uM incubated for 48 hrs by sulforhodamine B assay relative to control; assay type: functional; details: NCI-H226, 48 h, read-out: GI
UACC-257 = test: Growth inhibition of human UACC257 cells at 10 uM incubated for 48 hrs by sulforhodamine B assay relative to control; assay type: functional; details: UACC-257, 48 h, read-out: GI
NCI-H23 = test: Growth inhibition of human NCI-H23 cells at 10 uM incubated for 48 hrs by sulforhodamine B assay relative to control; assay type: functional; details: NCI-H23, 48 h, read-out: GI
HT-29 [1] = test: Antiproliferative activity against human HT-29 cells after 48 hrs by propidium iodide staining-based fluorometric analysis; assay type: functional, cell-based; details: HT-29, 48 h
SK-OV-3 = test: Growth inhibition of human SKOV3 cells at 10 uM incubated for 48 hrs by sulforhodamine B assay relative to control; assay type: functional; details: SK-OV-3, 48 h, read-out: GI
MIA PaCa-2 = test: Antiproliferative activity against human MIAPaCa2 cells after 48 hrs by propidium iodide staining-based fluorometric analysis; assay type: functional, cell-based; details: MIA PaCa-2, 48 h
HT-29 [2] = test: Growth inhibition of human HT-29 cells at 10 uM incubated for 48 hrs by sulforhodamine B assay relative to control; assay type: functional; details: HT-29, 48 h, read-out: GI
HOP-92 = test: Growth inhibition of human HOP92 cells at 10 uM incubated for 48 hrs by sulforhodamine B assay relative to control; assay type: functional; details: HOP-92, 48 h, read-out: GI
Malme-3M = test: Growth inhibition of human MALME-3M cells at 10 uM incubated for 48 hrs by sulforhodamine B assay relative to control; assay type: functional; details: read-out: GI
K562 = test: Growth inhibition of human K562 cells at 10 uM incubated for 48 hrs by sulforhodamine B assay relative to control; assay type: functional; details: K562, 48 h, read-out: GI
A549 [3] = test: Growth inhibition of human A549/ATCC cells at 10 uM incubated for 48 hrs by sulforhodamine B assay relative to control; assay type: functional; details: A549, 48 h, read-out: GI
MOLT-4 = test: Growth inhibition of human MOLT4 cells at 10 uM incubated for 48 hrs by sulforhodamine B assay relative to control; assay type: functional; details: MOLT-4, 48 h, read-out: GI
KM12 = test: Growth inhibition of human KM12 cells at 10 uM incubated for 48 hrs by sulforhodamine B assay relative to control; assay type: functional; details: KM12, 48 h, read-out: GI
U-251 = test: Growth inhibition of human U251 cells at 10 uM incubated for 48 hrs by sulforhodamine B assay relative to control; assay type: functional; details: U-251, 48 h, read-out: GI
SW-620 = test: Growth inhibition of human SW620 cells at 10 uM incubated for 48 hrs by sulforhodamine B assay relative to control; assay type: functional; details: SW-620, 48 h, read-out: GI
A498 = test: Growth inhibition of human A498 cells at 10 uM incubated for 48 hrs by sulforhodamine B assay relative to control; assay type: functional; details: A498, 48 h, read-out: GI
PC-3 = test: Growth inhibition of human PC3 cells at 10 uM incubated for 48 hrs by sulforhodamine B assay relative to control; assay type: functional; details: PC-3, 48 h, read-out: GI
RPMI-8226 = test: Growth inhibition of human RPMI8226 cells at 10 uM incubated for 48 hrs by sulforhodamine B assay relative to control; assay type: functional; details: RPMI-8226, 48 h, read-out: GI
PANC-1 = test: Antiproliferative activity against human PANC1 cells after 48 hrs by propidium iodide staining-based fluorometric analysis; assay type: functional, cell-based; details: PANC-1, 48 h
SF-268 = test: Growth inhibition of human SF268 cells at 10 uM incubated for 48 hrs by sulforhodamine B assay relative to control; assay type: functional; details: SF-268, 48 h, read-out: GI
OVCAR-8 = test: Growth inhibition of human OVCAR8 cells at 10 uM incubated for 48 hrs by sulforhodamine B assay relative to control; assay type: functional; details: OVCAR-8, 48 h, read-out: GI
MDA-MB-435 = test: Growth inhibition of human MDA-MB-435 cells at 10 uM incubated for 48 hrs by sulforhodamine B assay relative to control; assay type: functional; details: MDA-MB-435, 48 h, read-out: GI
A549 [4] = test: Induction of apoptosis in human A549 cells assessed as early apoptotic cells at 0.4 uM after 24 hrs by Annexin V/propidium iodide staining based flow cytometric analysis (reference value: 0.22%); assay type: functional
A549 [5] = test: Cell cycle arrest in human A549 cells assessed as accumulation at G2 phase at 0.4 uM after 24 hrs by propidium iodide staining based flow cytometry (reference value: 4.19%); assay type: functional
A549 [6] = test: Cell cycle arrest in human A549 cells assessed as accumulation at G1 phase at 0.4 uM after 24 hrs by propidium iodide staining based flow cytometry (reference value: 67.52%); assay type: functional
A549 [7] = test: Induction of apoptosis in human A549 cells assessed as viable cells at 0.4 uM after 24 hrs by Annexin V/propidium iodide staining based flow cytometric analysis (reference value: 98.03%); assay type: functional; details: A549, 24 h, read-out: Activity
A549 [8] = test: Cell cycle arrest in human A549 cells assessed as accumulation at S phase at 0.4 uM after 24 hrs by propidium iodide staining based flow cytometry (reference value: 27.9%); assay type: functional
A549 [9] = test: Induction of apoptosis in human A549 cells assessed as late apoptotic cells at 0.4 uM after 24 hrs by Annexin V/propidium iodide staining based flow cytometric analysis (reference value: 0.08%); assay type: functional
A549 [10] = test: Induction of apoptosis in human A549 cells assessed as necrotic cells at 0.4 uM after 24 hrs by Annexin V/propidium iodide staining based flow cytometric analysis (reference value: 0.09%); assay type: functional
[11] = biological target: Epidermal growth factor receptor (Homo sapiens, UniProt P00533); test: Inhibition of His6-tagged recombinant EGFR cytoplasmic domain (645 to 1186 residues) (unknown origin) expressed in baculovirus infected Sf9 insect cells preincubated for 10 mins followed by ATP-MgCl2 addition and measured after 1 hr by DELFIA/time-resolved fluorometric analysis
Sequence of Epidermal growth factor receptor (P00533 whole entry, the tested form may be a part): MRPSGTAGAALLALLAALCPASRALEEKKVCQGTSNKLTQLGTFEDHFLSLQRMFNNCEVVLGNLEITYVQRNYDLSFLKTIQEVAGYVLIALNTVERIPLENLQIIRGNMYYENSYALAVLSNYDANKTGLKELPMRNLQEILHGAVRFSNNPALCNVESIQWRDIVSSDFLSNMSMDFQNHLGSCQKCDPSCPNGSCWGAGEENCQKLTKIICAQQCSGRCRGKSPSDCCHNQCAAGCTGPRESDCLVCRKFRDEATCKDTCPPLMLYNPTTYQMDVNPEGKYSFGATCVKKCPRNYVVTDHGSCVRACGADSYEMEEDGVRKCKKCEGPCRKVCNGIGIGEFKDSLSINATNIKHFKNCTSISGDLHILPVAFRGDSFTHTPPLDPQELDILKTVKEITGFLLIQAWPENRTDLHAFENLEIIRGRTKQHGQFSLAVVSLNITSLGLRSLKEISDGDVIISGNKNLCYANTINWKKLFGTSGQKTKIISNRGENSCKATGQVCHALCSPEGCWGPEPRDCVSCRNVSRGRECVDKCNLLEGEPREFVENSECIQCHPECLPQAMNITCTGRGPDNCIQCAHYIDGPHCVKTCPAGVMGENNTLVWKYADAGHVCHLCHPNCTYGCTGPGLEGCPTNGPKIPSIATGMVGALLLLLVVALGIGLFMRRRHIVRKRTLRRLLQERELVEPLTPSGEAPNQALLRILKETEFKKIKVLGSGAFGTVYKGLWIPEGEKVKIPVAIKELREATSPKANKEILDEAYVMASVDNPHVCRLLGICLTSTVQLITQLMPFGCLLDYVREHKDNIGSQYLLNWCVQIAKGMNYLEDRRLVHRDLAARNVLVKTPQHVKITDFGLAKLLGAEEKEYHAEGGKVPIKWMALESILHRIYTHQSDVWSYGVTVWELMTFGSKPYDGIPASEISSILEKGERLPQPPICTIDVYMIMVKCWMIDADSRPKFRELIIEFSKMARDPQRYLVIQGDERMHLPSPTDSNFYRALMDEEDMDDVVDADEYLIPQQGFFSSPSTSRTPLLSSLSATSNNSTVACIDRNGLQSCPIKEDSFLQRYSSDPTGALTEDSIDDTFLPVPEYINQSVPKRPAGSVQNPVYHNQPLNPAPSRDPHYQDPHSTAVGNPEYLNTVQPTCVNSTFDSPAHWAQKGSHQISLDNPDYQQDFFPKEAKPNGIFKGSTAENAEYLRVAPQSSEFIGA

For `COc1cc(-c2nc(N)n(CC(=O)Nc3ccc(/C(C)=N\O)cc3)n2)cc(OC)c1OC`, the IC50 (NCI-H460) was 7.9 µM, the inhibition of growth at 10 µM (SNB-75) was 25.9% and the inhibition of growth at 10 µM (Hs-578T) was 17.9%. For the same compound, the inhibition of growth at 10 µM (HOP-62) was 5.54%, the inhibition of growth at 10 µM (MCF7) was 10.8% and the inhibition of growth at 10 µM (UO-31) was 20.5%. The inhibition of growth at 10 µM (HL-60(TB)) was 8.41%, the inhibition of growth at 10 µM (T47D) was 8.77% and the inhibition of growth at 10 µM (UACC-62) was 16.4%. It also gave an inhibition of growth at 10 µM (SK-MEL-2) of 8%, an inhibition of growth at 10 µM (TK-10) of 9.11% and an inhibition of growth at 10 µM (SK-MEL-5) of 2.08%. For the same compound, the inhibition of growth at 10 µM (NCI-H322M) was 5.82%, the inhibition of growth at 10 µM (CCRF-CEM) was 15.5% and the inhibition of growth at 10 µM (NCI-H522) was 29.2%. The inhibition of growth at 10 µM (SF-539) was 2.92%, the inhibition of growth at 10 µM (SN12C) was 4% and the inhibition of growth at 10 µM (SK-MEL-28) was 5.76%. The inhibition of growth at 10 µM (SR) was 17%, the inhibition of growth at 10 µM (NCI-H226) was 5.19% and the inhibition of growth at 10 µM (UACC-257) was 36.3%. It also gave an inhibition of growth at 10 µM (NCI-H23) of 4.21%, an IC50 (HT-29 [1]) of 7.9 µM and an inhibition of growth at 10 µM (SK-OV-3) of 12.1%. For the same compound, the IC50 (MIA PaCa-2) was 5.7 µM, the inhibition of growth at 10 µM (HT-29 [2]) was 13.6% and the inhibition of growth at 10 µM (HOP-92) was 11.8%. For the same compound, the inhibition of growth at 10 µM (Malme-3M) was 3.25%, the inhibition of growth at 10 µM (K562) was 3.93% and the inhibition of growth at 10 µM (A549 [3]) was 25.8%. The inhibition of growth at 10 µM (MOLT-4) was 8.41%, the inhibition of growth at 10 µM (KM12) was 2.75% and the inhibition of growth at 10 µM (U-251) was 14.2%. It also gave an inhibition of growth at 10 µM (SW-620) of 4.8%, an inhibition of growth at 10 µM (A498) of 11.2% and an inhibition of growth at 10 µM (PC-3) of 23.3%. The inhibition of growth at 10 µM (RPMI-8226) was 5.69%, the IC50 (PANC-1) was 5.2 µM and the inhibition of growth at 10 µM (SF-268) was 6.49%. It also gave an inhibition of growth at 10 µM (OVCAR-8) of 25.7% and an inhibition of growth at 10 µM (MDA-MB-435) of 18%.

`COc1cc(-c2nc3sc(-c4ccc(Cl)cc4)cn3n2)cc(OC)c1OC` showed an Activity (A549 [4]) of 5.38%, an IC50 (NCI-H460) of 3 µM and an Activity (A549 [5]) of 22.92%. The Activity (A549 [6]) was 49.52%, the viability at 0.4 µM (A549 [7]) was 83.5% and the Activity (A549 [8]) was 12.69%. It also gave an IC50 (HT-29 [1]) of 3.5 µM, an IC50 (MIA PaCa-2) of 3.9 µM and an Activity (A549 [9]) of 7.65%. It also gave an IC50 (PANC-1) of 3.5 µM, an Activity (A549 [10]) of 1.84% and an IC50 [11] of 1.7 µM.

Reference: ChEMBL document CHEMBL4270577, “Synthesis, anticancer activity and molecular modeling studies of 1,2,4-triazole derivatives as EGFR inhibitors” (Eur J Med Chem, 2018)
